# From patent US20160175318A1, “COMPOSITIONS COMPRISING ANTIBACTERIAL AGENT AND TAZOBACTAM” (WOCKHARDT LIMITED, priority 2013, published 2016)
# Where two headings read alike, the source gives them in different places.
# Columns and labels:
# Format in all cases: cell-based
# E. coli M-138 = test: Quantitative drug diffusion assay (disc, zone of inhibition, CLSI); parameters: key to Interpretation of zone as per CLSI recommendations: R: Resistant; I: Intermediate; S: Sensitive (Interpretation as per CLSI recommendations, 2010)
# Excerpt: (§1) Activity of cefepime in combination with tazobactam and various penicillins in combination with respective ESBL inhibitors was also investigated against highly resistant ESBL strains in quantitative drug diffusion assay performed as per CLSI recommendations (Clinical and Laboratory Standards Institute (CLSI), performance Standards for Antimicrobial Susceptibility Testing, 20th Informational Supplement, M 100-S20, Volume 30, No. 1, 2010).
# (§2) In a typical study, overnight grown bacterial cultures after appropriate dilution were seed inoculated in the molten, cooled agar media and plates poured. Antibiotics containing 6 mm diameter discs were place on the top of the agar surface. Zone of inhibition based observation was performed after 16-18 h of incubation at 35±2° C. in ambient air. The overall procedure was performed as per CLSI recommendations (Table 5 and 6). These assays are routinely used in determining possibility of treating a particular infection using antibiotic and/or their combinations. For example, in case of treating an infection caused by E. coli (M138) using Augmentin® [commercially available combination: Amoxicillin (500 mg)+Clavulanic acid (125 mg)], the zone inhibition values need to be in the sensitive (S) range.
# E. coli B-123 = test: as above; parameters: key to Interpretation of zone as per CLSI recommendations: R: Resistant; I: Intermediate; S: Sensitive (Interpretation as per CLSI recommendations, 2010)
# Excerpt: as §1, §2
# E. coli M50 [1] = test: as above; parameters: key to Interpretation of zone as per CLSI recommendations: R: Resistant; I: Intermediate; S: Sensitive (Interpretation as per CLSI recommendations, 2010)
# Excerpt: as §1, §2
# E. coli B-89 [2] = test: as above; parameters: key to Interpretation of zone as per CLSI recommendations: R: Resistant; I: Intermediate; S: Sensitive (Interpretation as per CLSI recommendations, 2010)
# Excerpt: as §1, §2
# E. coli 7MP [3] = test: as above; parameters: key to Interpretation of zone as per CLSI recommendations: R: Resistant; I: Intermediate; S: Sensitive (Interpretation as per CLSI recommendations, 2010)
# Excerpt: as §1, §2
# E. coli S-112 = test: as above; parameters: key to Interpretation of zone as per CLSI recommendations: R: Resistant; I: Intermediate; S: Sensitive (Interpretation as per CLSI recommendations, 2010)
# Excerpt: as §1, §2
# E. cloacae M-20 = test: MIC by agar dilution (CLSI) against highly resistant ESBL strain; conditions: E. cloacae M-20
# Method in brief: (§3)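 Cephalosporins, including cefepime, combined with tazobactam; CLSI agar dilution with twofold steps. Overnight cultures diluted, inoculated, incubated 35±2° C for 16-20 h, ambient air, then checked for growth.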
# K. pneumoniae M150 = test: as above; conditions: Klebsiella pneumoniae, M150, K. pneumoniae M150, read-out: MIC
# Method in brief: as §3
# E. coli M50 [4] = test: as above
# Method in brief: as §3
# E. coli B-89 [5] = test: as above; conditions: E. coli B-89
# Method in brief: as §3
# E. coli 7MP [6] = test: as above; conditions: E. coli 7MP
# Method in brief: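 Agar dilution, CLSI: diluted overnight inoculum on doubling-dilution antibiotic plates; cephalosporins ± tazobactam; 16-20 h, 35±2° C, ambient air; growth/no growth read.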
# [7] = ESBL inhibitor 0 mcg (antibiotic alone)
# [8] = Table 5, with Tazobactam 10 mcg
# [9] = Table 6, with Tazobactam 10 mcg
smiles,measurement,setting,value
CCN1CCN(C(=O)N[C@@H](C(=O)N[C@@H]2C(=O)N3[C@@H]2SC(C)(C)[C@@H]3C(=O)O)c2ccccc2)C(=O)C1=O [Piperacillin],Zone of Inhibition,E. coli M-138; [7],Nil
same,Interpretation of zone as per CLSI recommendations,"E. coli M-138; Table 5, ESBL inhibitor 0 mcg",(R)
same,Interpretation of zone as per CLSI recommendations,E. coli M-138; [8],(R)
same,Interpretation of zone as per CLSI recommendations,"E. coli M-138; Table 6, ESBL inhibitor 0 mcg",(R)
same,Interpretation of zone as per CLSI recommendations,E. coli M-138; [9],(R)
same,Zone of Inhibition,E. coli M-138; with Tazobactam 10 mcg,15.5 mm
same,Zone of Inhibition,E. coli B-123; [7],Nil
same,Interpretation of zone as per CLSI recommendations,"E. coli B-123; Table 5, ESBL inhibitor 0 mcg",(R)
same,Interpretation of zone as per CLSI recommendations,E. coli B-123; [8],(R)
same,Interpretation of zone as per CLSI recommendations,"E. coli B-123; Table 6, ESBL inhibitor 0 mcg",(R)
same,Interpretation of zone as per CLSI recommendations,E. coli B-123; [9],(R)
same,Zone of Inhibition,E. coli B-123; with Tazobactam 10 mcg,13.5 mm
same,Zone of Inhibition,E. coli M50 [1]; [7],Nil
same,Interpretation of zone as per CLSI recommendations,"E. coli M50 [1]; Table 5, ESBL inhibitor 0 mcg",(R)
same,Interpretation of zone as per CLSI recommendations,E. coli M50 [1]; [8],(R)
same,Interpretation of zone as per CLSI recommendations,"E. coli M50 [1]; Table 6, ESBL inhibitor 0 mcg",(R)
same,Interpretation of zone as per CLSI recommendations,E. coli M50 [1]; [9],(R)
same,Zone of Inhibition,E. coli M50 [1]; with Tazobactam 10 mcg,17 mm
same,Zone of Inhibition,E. coli B-89 [2]; [7],Nil
same,Interpretation of zone as per CLSI recommendations,"E. coli B-89 [2]; Table 5, ESBL inhibitor 0 mcg",(R)
same,Interpretation of zone as per CLSI recommendations,E. coli B-89 [2]; [8],(R)
same,Interpretation of zone as per CLSI recommendations,"E. coli B-89 [2]; Table 6, ESBL inhibitor 0 mcg",(R)
same,Interpretation of zone as per CLSI recommendations,E. coli B-89 [2]; [9],(R)
same,Zone of Inhibition,E. coli B-89 [2]; with Tazobactam 10 mcg,15 mm
same,Zone of Inhibition,E. coli 7MP [3]; [7],Nil
same,Interpretation of zone as per CLSI recommendations,"E. coli 7MP [3]; Table 5, ESBL inhibitor 0 mcg",(R)
same,Interpretation of zone as per CLSI recommendations,E. coli 7MP [3]; [8],(R)
same,Interpretation of zone as per CLSI recommendations,"E. coli 7MP [3]; Table 6, ESBL inhibitor 0 mcg",(R)
same,Interpretation of zone as per CLSI recommendations,E. coli 7MP [3]; [9],(R)
same,Zone of Inhibition,E. coli 7MP [3]; with Tazobactam 10 mcg,13.5 mm
same,Zone of Inhibition,E. coli S-112; [7],Nil
same,Interpretation of zone as per CLSI recommendations,"E. coli S-112; Table 5, ESBL inhibitor 0 mcg",(R)
same,Interpretation of zone as per CLSI recommendations,E. coli S-112; [8],(R)
same,Interpretation of zone as per CLSI recommendations,"E. coli S-112; Table 6, ESBL inhibitor 0 mcg",(R)
same,Interpretation of zone as per CLSI recommendations,E. coli S-112; [9],(R)
same,Zone of Inhibition,E. coli S-112; with Tazobactam 10 mcg,14 mm
same,MIC,E. cloacae M-20; with Tazobactam 4 mcg,>64 µg/mL
same,MIC,E. cloacae M-20; with Tazobactam 8 mcg,>64 µg/mL
same,MIC,"E. cloacae M-20; Enterobacter cloacae, M20, 20 h, Tazobactam 0 mcg (antibiotic alone), read-out: MIC",> 128 µg/mL
same,MIC,K. pneumoniae M150; Tazobactam 0 mcg (antibiotic alone),> 128 µg/mL
same,MIC,K. pneumoniae M150; with Tazobactam 4 mcg,> 64 µg/mL
same,MIC,K. pneumoniae M150; with Tazobactam 8 mcg,> 64 µg/mL
same,MIC,"E. coli M50 [4]; Escherichia coli, 20 h, Tazobactam 0 mcg (antibiotic alone), read-out: MIC",> 128 µg/mL
same,MIC,E. coli M50 [4]; with Tazobactam 4 mcg,>64 µg/mL
same,MIC,E. coli M50 [4]; with Tazobactam 8 mcg,>64 µg/mL
same,MIC,E. coli B-89 [5]; with Tazobactam 4 mcg,>64 µg/mL
same,MIC,E. coli B-89 [5]; with Tazobactam 8 mcg,>64 µg/mL
same,MIC,"E. coli B-89 [5]; Escherichia coli, B89, 20 h, Tazobactam 0 mcg (antibiotic alone), read-out: MIC",> 128 µg/mL
same,MIC,E. coli 7MP [6]; with Tazobactam 4 mcg,>64 µg/mL
same,MIC,E. coli 7MP [6]; with Tazobactam 8 mcg,>64 µg/mL
same,MIC,"E. coli 7MP [6]; Escherichia coli, 7MP, 20 h, Tazobactam 0 mcg (antibiotic alone), read-out: MIC",> 128 µg/mL
